Assay results published in patent publication US5462861A, “Method for improving enzyme activities with noble gases” (American Air Liquide, Chicago Research Center, priority 1993, dated 1995).

Columns and labels:
[1] = test system: β-D-Glucosidase; assay: High pressure experiments, β-D-glucosidase; type: biochemical, Almonds
Method: Experiments were conducted in pressure cells pressurized with additional test gas after solution was already saturated, at 2 atmospheres or at 3 atmospheres in real-time, or after pressurizing in a 1-liter cylinder for 1 hour or ~24 hours at 30.6 atmospheres and at 100 atmospheres.
Rinse the cylinders with copious quantities of D.I. H2 O. Then rinse the cylinders with the second enzyme solution (glucosidase). Place a 25 ml aliquot of enzyme solution into each of 2 disposable gas cylinders. Shake the enzyme in each cylinder for several minutes and then remove a 5 ml sample for Control B and Control C.
Remove cylinders to the dock, gassing with the appropriate gas; bring pressure slowly up to 30.6 atm. Let sit at the required pressure for 60 minutes. Slowly depressurize to 2 psi before bringing into the lab.
Bring the cylinders back to the dock and repressurize to 100 atm with the appropriate gas. Let sit at the required pressure for 60 minutes. Slowly depressurize to 2 psi before bringing into the lab.
Cuvettes were filled for the 2 atm experiments for both enzymes. Each cuvette was gassed 10×10 cc with the appropriate gas and refrigerated for 15 minutes prior to running. Serum vials were filled with 5 cc of the corresponding enzyme and gassed with 10×10 cc of the appropriate gas prior to running. The spectrophotometers were set up such that a continuous flow of each gas could be delivered to each spectro at all times. A 100 psimax gauge was installed to read the cuvette pressure and 2 on/off valves were installed so that the reference cell could be pressurized during the second replicate. A ball valve was installed between the cylinder/house line and the gauge so that gas flow could be controlled directly at the spectrophotometers. A check valve was placed in each line to ensure that a back pressure would not cause contamination of the house lines or the gas cylinders. The cuvettes retained the 2 needles during the entire run. One of the needles was attached to the gas line while the second was used for enzyme introduction and then plugged. Due to the bulky nature of the assembly it was impossible to use the installed doors of the spectrophotometers therefore they were removed. A 4-layer thick black felt cover was prepared for each spectro to minimize the amount of light entering the system.
While the cuvette was equilibrating to temperature in the spectrophotometer both needles remained in the cuvette with 10 cc syringes still attached. Prior to enzyme introduction one of the syringes was removed while the gas line was attached to the needle. A small flow of gas run through the line while this was done to ensure that there was no oxygen contamination. The needles remained above the liquid level. The second syringe was removed to allow constant flow through the cuvette. The enzyme was injected through the second needle using a 1 cc syringe. The needle was then plugged, the cuvette pressurized and the run begun.
A nonpressurized gas run using all four gases was done for each enzyme. Each cuvette was gassed with 10×10 cc of the corresponding gas and refrigerated for 15 minutes. The 2 needles used for gassing the cuvettes were removed when the cuvettes were placed into the spectrophotometer. Enzyme was introduced into the cuvettes using a 1 cc syringe with a 20G11/2 needle attached. The needle was placed into the cuvette through the silicone plug but not immersed into the liquid. This was to ensure that enzyme introduction into the cuvette was the same as for the pressurized gas run.
The same method as used in Trial 2 on Apr. 30, 1991 was used for this trial.
At 3 atmospheres pressure, the degree of enhancement observed was changed as follows: […]

[2] = biological target: Triosephosphate isomerase (Homo sapiens, UniProt P60174); assay: Triosephosphate isomerase activity under gas; type: biochemical
Chain of Triosephosphate isomerase (P60174 2-249 limits assumed, species assumed): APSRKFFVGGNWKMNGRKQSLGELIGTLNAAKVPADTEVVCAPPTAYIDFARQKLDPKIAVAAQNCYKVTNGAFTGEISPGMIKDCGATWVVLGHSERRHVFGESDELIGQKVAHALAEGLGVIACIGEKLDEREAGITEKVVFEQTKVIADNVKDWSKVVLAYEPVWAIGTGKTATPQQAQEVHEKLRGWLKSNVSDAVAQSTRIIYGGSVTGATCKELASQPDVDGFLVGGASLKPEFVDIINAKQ
Method: Solution preparation: Optimized w/v solutions are prepared by diluting the enzyme (units/ml) and the substrate (μg/ml) in appropriate buffer (optimized pH and molarity for enzymes). The solutions are used for gas experiments at once to avoid loss of activity. Various enzyme and substrate concentrations and inhibitors may be employed. Physical parameters are varied as required.
Preparation of samples: Cuvets are filled with 2 ml of substrate solution by means of a gas-tight syringe. Gas-tight serum vials are filled with enzyme and solvent. Sufficient gas is consecutively bubbled in the cuvets and serum vials, with a 1-hr wait between injections to maximize equilibration of gas. All syringes and dead spaces are purged before filling with the appropriate gas. The amount of gas used has been measured sufficient to saturate the solution required.
Spectrophotometric time-drive, reaction rate, and kinetic analyses: cuvets and serum vials are saturated with gas 40 minutes before the run. A gas-filled syringe is used to retrieve 0.5 ml of enzyme solution to avoid air contact. The 0.5 ml syringe injections of enzyme are made simultaneously to effect a common starting time to for the samples. 7 gases (air, O2, N2, Ne, Ar, Kr, Xe) are run at various temperatures each (from 0° to 60° ). Changes in the rate or final equilibrium of the reaction versus ambient air are recorded. Comparison is also made with added oxygen, and with deoxygenation. Some samples are also prepared under pressure.
In a complete experiment, an enzyme at optimal pH and buffering salt concentration is reacted with 5 substrate concentrations in solution with noble gas at 1 atm. […] Controls are also run after evacuation of solution by vacuum. The reaction is monitored colorimetrically in a scanning spectrophotometer in real time, and the signals are treated mathematically to obtain rate and yield differences. Sample numbers are constant and sufficient to ensure significance of results. All parameters are independently controlled and measured, and more complex experiments are occasionally carried out.

[3] = at 3 atmospheres pressure (value after the > sign), minus = inhibition
[4] = before pressurization (value before the > sign)

Row | SMILES | degree of enhancement observed [1, 3] | degree of enhancement observed [1, 4] | effect ([2]; 10° C., plus = enhancement) | effect ([2]; 25° C., inhibition) [%] | effect on β-glucosidase ([1]; 30 atm. pressure, FIG. 38) | effect on β-glucosidase ([1]; 100 atm. pressure, 25° C., FIG. 37)
1 | [Ar] [Ar, argon] | -13.2 | +1.0 | +8% | -37 | – | –
2 | N#N [N2, nitrogen, reference compound] | -5.0 | 0 | – | – | inhibitory effect | inhibitory effect
3 | [Ne] [Ne, neon] | -12.5 | +1.0 | +4% | – | – | –
4 | [Xe] [Xe, xenon] | -15.7 | +3.1 | +24% | – | – | –
5 | [Kr] [Kr, krypton] | -6.2 | +2.0 | +12% | – | – | –
